The subject of one data set is Pseudomonas aeruginosa. Put plainly: % Kill of Pseudomonas aeruginosa. The format is cell-based. The settings on record: read-out: Percent Kill Pseudomonas aeruginosa; for killing at 0.23 µg/mL: 0.23 ppm free bromine; for killing at 0.34 µg/mL: 0.34 ppm free bromine; for killing at 0.2 µg/mL: 0.20 ppm free bromine; for killing at 0.25 µg/mL: 0.25 ppm free bromine. The source says: Quaternary ammonium polyhalides and surfactant mixtures thereof have biocidal properties in aqueous systems where oxidizing biocides are compatible; that is, in aqueous systems having a low halogen demand.
The data in Tables 3-5 indicate that the combination of a water soluble liquid quaternary ammonium polyhalide and a surfactant provides an enhanced efficacy over the liquid quaternary ammonium polyhalide alone. This may be a result of the surface active effect on exopolysaccharides and/or biological membranes.

For data set [1] the following is noted: Japanese Patent Publication No. 49/14,411; cited from earlier work.
For data set [2] the following is noted: Japanese Patent Publication No. 49/14,411; cited from earlier work. This is another data set of the same source.

Molecules are shown by their SMILES. Read-outs that look alike come from different tables or passages of the source.

With `CCCCCCCC[N+](C)(C)CCCCCCCC` [Compound 2, N-N-Dimethyl-N,N-dioctylammonium dibromochloride], the killing at 0.23 µg/mL worked out at 82% in the data set on Pseudomonas aeruginosa (1 min, 1 min); 100% in the data set on Pseudomonas aeruginosa (0.05 h, 3 min); 100% in the data set with Pseudomonas aeruginosa (5 min, 5 min); 100% in the data set with Pseudomonas aeruginosa (10 min, 10 min).
In the case of `COCCOCC[N+](C)(CCOCCOC)CCOCCOC` [Compound 3, N-Methyl-N,N,N-tris(3,6-dioxaheptyl)ammonium diobromoiodide], the killing at 0.34 µg/mL in the data set on Pseudomonas aeruginosa (1 min, 1 min) is 98.6%; with Pseudomonas aeruginosa (0.05 h, 3 min), 100%; in the data set with Pseudomonas aeruginosa (5 min, 5 min) it was 100%; in the data set with Pseudomonas aeruginosa (10 min, 10 min), 100%.
Regarding `CCCCCCCCN(C)C` [Compound 4, N,N-Dimethyl-N-octylamine hydrotribromide], the killing at 0.34 µg/mL worked out at 99.9% in the data set with Pseudomonas aeruginosa (1 min, 1 min); 100% in the data set on Pseudomonas aeruginosa (0.05 h, 3 min); 100% in the data set on Pseudomonas aeruginosa (5 min, 5 min); 100% in the data set on Pseudomonas aeruginosa (10 min, 10 min).
For `CC[N+](C)(C)C` [Compound 5, N-Ethyl-N,N,N-trimethylammonium tribromide], the killing at 0.34 µg/mL in the data set on Pseudomonas aeruginosa (1 min, 1 min) was determined as 99.9%; in the data set on Pseudomonas aeruginosa (0.05 h, 3 min), 100%; in the data set on Pseudomonas aeruginosa (5 min, 5 min) it was 100%; in the data set on Pseudomonas aeruginosa (10 min, 10 min), 100%.
On to `CCC[N+](C)(C)CC` [Compound 6, N,N-Dimethyl-N-ethyl-N-propylammonium pentabromide], for which the killing at 0.34 µg/mL was 99.6% in the data set with Pseudomonas aeruginosa (1 min, 1 min); 100% with Pseudomonas aeruginosa (0.05 h, 3 min); 100% in the data set on Pseudomonas aeruginosa (5 min, 5 min); 100% in the data set on Pseudomonas aeruginosa (10 min, 10 min).
On to `C[N+](C)(C)CCO` [Compound 7, N-(2-Hydroxyethyl)-N,N,N-trimethylammonium tribromide], for which the killing at 0.2 µg/mL was determined as 56.6% with Pseudomonas aeruginosa (1 min, 1 min); 99.6% in the data set with Pseudomonas aeruginosa (0.05 h, 3 min); 100% with Pseudomonas aeruginosa (5 min, 5 min); 100% with Pseudomonas aeruginosa (10 min, 10 min).
For the compound `COCCOCCN(CCOCCOC)CCOCCOC` [Compound 8, N,N,.N-tris(3,6-Dioxaheptyl)amine hydrotribromide], the killing at 0.23 µg/mL was determined as 99.9% in the data set on Pseudomonas aeruginosa (1 min, 1 min); 100% with Pseudomonas aeruginosa (0.05 h, 3 min); 100% in the data set on Pseudomonas aeruginosa (5 min, 5 min); 100% in the data set with Pseudomonas aeruginosa (10 min, 10 min).
Consider `CCC[N+](CCOCCOC)(CCOCCOC)CCOCCOC` [Compound 9, N-Propyl-N,N,N-tris(3,6-dioxaheptyl)-ammonium tribromide], for which the killing at 0.23 µg/mL in the data set on Pseudomonas aeruginosa (1 min, 1 min) worked out at 21.5%; in the data set on Pseudomonas aeruginosa (0.05 h, 3 min), 82%; in the data set on Pseudomonas aeruginosa (5 min, 5 min) it was 100%; in the data set with Pseudomonas aeruginosa (10 min, 10 min), 100%.
On to `CCCCCCCCCCCCCC[N+](C)(C)Cc1ccccc1` [Compound 11, N-Benzyl-N,N-dimethyl-N-myristyl-ammonium dibromochloride], for which the killing at 0.34 µg/mL in the data set on Pseudomonas aeruginosa (1 min, 1 min) was 100%; with Pseudomonas aeruginosa (0.05 h, 3 min), 100%; in the data set on Pseudomonas aeruginosa (5 min, 5 min), 100%; in the data set on Pseudomonas aeruginosa (10 min, 10 min), 100%.
`CCOCC[N+](C)(C)C` [Compound 12, N-Ethoxyethyl-N,N,N-trimethylammonium tribromide]: the killing at 0.34 µg/mL turned out to be 100% with Pseudomonas aeruginosa (1 min, 1 min); 100% in the data set on Pseudomonas aeruginosa (0.05 h, 3 min); 99.9% in the data set on Pseudomonas aeruginosa (5 min, 5 min); 100% in the data set on Pseudomonas aeruginosa (10 min, 10 min).
Consider `CCC[N+](C)(C)CC` [Compound 13, N,N-Dimethyl-N-ethyl-N-propylammonium dichlorobromide], for which the killing at 0.25 µg/mL with Pseudomonas aeruginosa (1 min, 1 min) turned out to be 100%; in the data set with Pseudomonas aeruginosa (0.05 h, 3 min) it was 100%; in the data set with Pseudomonas aeruginosa (5 min, 5 min), 100%; in the data set on Pseudomonas aeruginosa (10 min, 10 min), 100%.
For `CC[N+](C)(C)C` [Compound 14, N-Ethyl-N,N,N-tri-methylammonium dichlorobromide], the killing at 0.2 µg/mL is 100% in the data set on Pseudomonas aeruginosa (1 min, 1 min); 100% in the data set with Pseudomonas aeruginosa (0.05 h, 3 min); 100% in the data set with Pseudomonas aeruginosa (5 min, 5 min); 100% in the data set on Pseudomonas aeruginosa (10 min, 10 min).
As for `CCCCCCCCCC[N+](C)(C)CCCCCCCCCC` [Compound 15, N,N-Didecyl-N,N-dimethyl-ammonium dibromochloride], the killing at 0.3 µg/mL in the data set with Pseudomonas aeruginosa (1 min), in the data set with Pseudomonas aeruginosa (0.05 h), with Pseudomonas aeruginosa (5 min) and in the data set with Pseudomonas aeruginosa (10 min) was 100% in each case.
With `CCCCCCCCCCCCCCCC[n+]1ccccc1` [cetylpyridinium tribromide], the water solubility result in data set [1] was “water insoluble”. In addition, in data set [2], the biocidal properties result was “having biocidal properties”.
On to `CCCCCCCCCCCCCCCC[N+](C)(C)C.[Br-]` [cetyltrimethylammonium bromide], for which the biocidal properties entry in data set [2] was “having biocidal properties”.
Consider `CCCCCCCCCCCCCCCC[N+](C)(C)C` [cetyltrimethylammonium tribromide], for which, in data set [1], the water solubility entry is “water insoluble”. Further, the biocidal properties result in data set [2] is given as “having biocidal properties”.
